According to patent publication US20240051937A1, “ISOINDOLINONE AMIDE COMPOUNDS USEFUL TO TREAT DISEASES ASSOCIATED WITH GSPT1” (Monte Rosa Therapeutics, Inc., priority 2021, published 2024):
Like-named read-outs stand apart in the source and are kept apart here.

Key:
[1] = target: T1, Full length wild-type cereblon CRBN (Homo sapiens, UniProt Q96SW2); experiment: Fluorescence polarization (FP) assay indicating cereblon binding
T1 construct: Full length wild-type cereblon CRBN (80.0 nM, 10 μL) was incubated in assay buffer
Excerpt: Protocol for Fluorescent Polarization Assay
Compound activity was monitored in a fluorescence polarization (FP) homogeneous assay using 1-[5-({2-[2-(2-{[2-(2,6-dioxopiperidin-3-yl)-1,3-dioxo-2,3-dihydro-1H-isoindol-4-yl]oxy}acetamido)ethoxy]ethyl}carbamoyl)pentyl]-3,3-dimethyl-2-[(1E,3E)-5-[(2E)-1,3,3-trimethyl-5-sulfo-2,3-dihydro-1H-indol-2-ylidene]penta-1,3-dien-1-yl]-3H-indol-1-ium-5-sulfonate as a fluorescent probe. Unless otherwise stated, all reagents were purchased from Sigma Aldrich. Enzymatic reactions were conducted in Perkin-Elmer Black 384 well ProxiPlate Plus (catalogue no. 6008269) in 10 μL total volume. Full length wild-type cereblon CRBN (80.0 nM, 10 μL) was incubated in assay buffer containing 20 mM HEPES (pH 8.0), […], 0.5 mM TCEP and 0.05% Tween 20 in the presence or absence of compound (300 nL). Inhibitors were stored as 10 mM DMSO stocks in an inert environment (low humidity, dark, low oxygen, room temperature) using the Storage Pod System. Compounds and DMSO were dispensed using the Echo E5XX (Labcyte Inc. USA) to give concentrations from 300 to 0.937 or 3000 to 9.3 nM in a 12 data point curve. […] Following incubation at room temperature for 30 min, the assay was initiated by dispensing the probe to a final concentration of 5 nM (2.5 nL of a 20 μM stock) using the Echo E5XX. FP was measured after a period of 12 hours using a Pherastar plate reader (BMG Labtech, Germany) exciting at 590 nm and measuring the amount of parallel and perpendicular light at 675 nm. The FP signal was subsequently normalized to the no-compound control (i.e., DMSO). Analysis and IC50 values were derived using Dotmatics (Dotmatics UK) software.

[2] = target: GSPT1 (Homo sapiens, UniProt P15170+Q96SW2); experiment: Immunofluorescence assay for GSPT1 degradation in CAL-Si cells; assay type: cell-based; set-up: CAL-Si cells were purchased from DSMZ (cat. Number ACC302); host or cells: CAL-Si (CAL-51) cells; conditions: 6 hours treatment
Method: The representative compounds were tested in an immunofluorescence assay for their activity to bind to degrade GSPT1. CAL-Si cells were purchased from DSMZ (cat. Number ACC302), sub-cultured in 90% Dulbecco's MEM (4.5 g/L glucose, Gibco 11965)+10% […] inactivated FBS (BioConcept, 2-01F136I) and incubated at 37° C., 5% CO2. For the assay, imaging microtiterplate Cell Carrier 96 Ultra (Perkin Elmer 6055302) were pre-coated with Fibronectin (Sigma F085, 30 μl at 0.2 μg/ml) in PBS (100 μl, Gibco 14190) for 45 min at room temperature, rinsed with PBS and CAL-Si cells (30K cells/well) were plated and let to adhere overnight. Cells were treated with compounds typically using a serial dilution ranging from 30 μM to 0.1 nM for 6 hours. Compounds were stored at 10 mM DMSO stocks. Vehicle (DMSO), positive (CC-885, 10 μM) and rescue controls (positive control plus 0.2 μM bortezomib) were also included at this stage. Cells were subsequently rinsed with PBS and fixed in 10% Formalin solution (50 μl, Sigma HT5011)) for 20 mins at room temperature. Following three consecutive PBS washes (100 μl), cells were permeabilized in 0.1% Triton X-100 in PBS (Sigma 93443, 50 μl) for 15 mins at room temperature. Following three further PBS washes, […] blocking buffer (1% BSA, Sigma A4503, in PBS) was added for 45 min for signal-to-noise reduction.
Primary antibody (human GSPT1, Sigma HPA052488) was diluted in blocking buffer (dil.1/300, 35 μl/well) and incubated with the cells overnight at 4° C. After three PBS washes, Alexa-fluor 488 coupled secondary antibodies (Invitrogen, A32731, dil.1/1000), Alexa-fluor 647-Phalloidin (Invitrogen, A22287, dil.1/200) and DAPI (Thermo, #62248, dil.1/1000) were diluted in blocking buffer and incubated with the samples for 2 hours at room temperature. After three final PBS washes, samples were conserved in […] PBS in the dark, until measurement. Image acquisition was performed on the Operetta High-Content Imager (Perkin-Elmer). Fluorescence intensity of Alexa-Fluor 488 (GSPT1), Alexa-Fluor 647 (Actin) and DAPI (Nucleus) were measured. For the determination of GSPT1 DC50 values, a custom algorithm implemented in the PerkinElmer image analysis software Harmony-Acapella® was developed. After user-defined setting of adjustment parameters, the analysis was run identically without human intervention for all image fields. DAPI staining of the nuclei was used to determine the location of cells using standard nuclei detection modules. Segmentation artifacts were removed by threshold-based filters for area, roundness and intensity. The outline of the cells was determined analogously from the sum of the normalized, smoothed DAPI and Actin channel, starting from each nucleus.
The Alexa-Fluor 488 (GSPT1) signal intensity in each cell was finally measured, in order to obtain a Mean intensity per cell. GSPT1 degradation (DC50) was calculated after normalization to controls and data import in CDD vault Database, using non-linear regression.

[3] = cereblon binding, CRBN 80.0 nM, probe 5 nM, FP read after 12 hours, read-out: rFP IC50
[4] = read-out: Code: activity for GSPT1 degradation (DC50)
[5] = fluorescence polarization assay, read-out: IC50 value (cereblon binding)
[6] = GSPT1 degradation, read-out: DC50

Chain of GSPT1 (P15170 whole entry): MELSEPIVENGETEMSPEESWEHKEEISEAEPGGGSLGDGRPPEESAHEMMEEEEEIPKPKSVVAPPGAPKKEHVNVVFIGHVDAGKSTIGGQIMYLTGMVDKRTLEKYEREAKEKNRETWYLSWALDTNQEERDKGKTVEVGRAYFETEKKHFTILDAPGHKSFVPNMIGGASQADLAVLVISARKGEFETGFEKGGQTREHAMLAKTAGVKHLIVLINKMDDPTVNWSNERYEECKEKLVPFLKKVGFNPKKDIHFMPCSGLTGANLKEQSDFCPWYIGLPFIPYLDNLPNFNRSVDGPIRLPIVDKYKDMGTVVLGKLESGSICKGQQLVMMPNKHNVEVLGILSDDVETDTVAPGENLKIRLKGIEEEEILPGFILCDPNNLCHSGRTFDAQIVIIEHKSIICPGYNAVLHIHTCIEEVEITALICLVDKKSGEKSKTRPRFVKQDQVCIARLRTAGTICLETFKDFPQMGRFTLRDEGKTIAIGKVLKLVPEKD
Chain of GSPT1 (Q96SW2 whole entry): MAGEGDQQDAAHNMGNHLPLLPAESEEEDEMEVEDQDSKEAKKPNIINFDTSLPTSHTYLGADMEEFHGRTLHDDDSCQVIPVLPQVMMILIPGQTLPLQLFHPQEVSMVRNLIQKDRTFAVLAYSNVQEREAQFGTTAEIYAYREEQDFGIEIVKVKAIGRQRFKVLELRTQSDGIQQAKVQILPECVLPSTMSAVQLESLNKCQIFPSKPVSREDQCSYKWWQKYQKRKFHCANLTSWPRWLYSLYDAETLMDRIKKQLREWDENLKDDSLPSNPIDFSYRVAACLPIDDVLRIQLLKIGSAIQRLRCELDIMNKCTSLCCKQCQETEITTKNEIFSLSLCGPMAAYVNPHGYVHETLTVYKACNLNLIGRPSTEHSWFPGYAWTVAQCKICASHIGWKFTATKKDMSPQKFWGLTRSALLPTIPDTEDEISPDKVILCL
Chain of GSPT1 (Q16531 whole entry partner): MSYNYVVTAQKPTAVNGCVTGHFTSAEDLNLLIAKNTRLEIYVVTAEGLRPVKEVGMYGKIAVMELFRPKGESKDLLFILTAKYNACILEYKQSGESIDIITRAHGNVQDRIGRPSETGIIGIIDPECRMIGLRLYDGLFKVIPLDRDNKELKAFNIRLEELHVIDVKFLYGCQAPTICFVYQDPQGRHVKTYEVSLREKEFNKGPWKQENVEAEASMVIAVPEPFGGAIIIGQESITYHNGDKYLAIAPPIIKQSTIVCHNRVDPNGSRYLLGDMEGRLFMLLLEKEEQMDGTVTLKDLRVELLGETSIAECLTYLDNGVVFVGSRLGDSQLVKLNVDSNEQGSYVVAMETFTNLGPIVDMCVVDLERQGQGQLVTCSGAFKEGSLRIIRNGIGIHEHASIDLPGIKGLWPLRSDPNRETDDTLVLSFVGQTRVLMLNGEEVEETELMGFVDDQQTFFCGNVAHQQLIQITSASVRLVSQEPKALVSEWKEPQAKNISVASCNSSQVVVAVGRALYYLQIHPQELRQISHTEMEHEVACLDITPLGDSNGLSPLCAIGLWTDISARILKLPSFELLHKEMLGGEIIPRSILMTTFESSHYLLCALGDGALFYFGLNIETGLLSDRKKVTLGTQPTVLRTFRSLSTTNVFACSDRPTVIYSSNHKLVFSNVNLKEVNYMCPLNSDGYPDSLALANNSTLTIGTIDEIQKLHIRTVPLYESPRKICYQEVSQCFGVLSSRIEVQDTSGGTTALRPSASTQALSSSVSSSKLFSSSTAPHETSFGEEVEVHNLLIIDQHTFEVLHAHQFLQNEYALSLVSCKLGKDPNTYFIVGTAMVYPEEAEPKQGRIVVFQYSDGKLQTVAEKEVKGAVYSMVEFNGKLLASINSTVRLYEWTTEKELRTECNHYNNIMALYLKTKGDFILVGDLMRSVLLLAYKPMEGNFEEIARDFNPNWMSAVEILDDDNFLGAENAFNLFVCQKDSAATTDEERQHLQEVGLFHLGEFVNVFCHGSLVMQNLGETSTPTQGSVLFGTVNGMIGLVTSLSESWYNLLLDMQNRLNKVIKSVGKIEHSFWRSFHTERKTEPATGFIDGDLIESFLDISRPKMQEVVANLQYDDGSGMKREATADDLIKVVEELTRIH
T1 sequence (Q96SW2 whole entry): as the sequence (Q96SW2 whole entry) above

| Structure (SMILES) | IC50 [1, 3] | DC50 [2, 4] | IC50 [1, 5] | DC50 [2, 6] |
| --- | --- | --- | --- | --- |
| CC1(c2ccc(NC(=O)CCc3ccc4c(c3)C(=O)N(C3CCC(=O)NC3=O)C4)cc2)COC1 (centres unmarked) [Compound 55] | 1100 to 1700 nM | > 300 nM | – | – |
| CCc1cc(NC(=O)CCc2ccc3c(c2)C(=O)N(C2CCC(=O)NC2=O)C3)cnc1C (centres unmarked) [Compound 46] | 500 to 1100 nM | 30 to 300 nM | < 1100 nM | – |
| O=C1CCC(N2Cc3ccc(CCC(=O)Nc4cnc5c(c4)CCC5)cc3C2=O)C(=O)N1 (centres unmarked) [Compound 49] | 1100 to 1700 nM | > 300 nM | – | – |
| Cc1c(F)cc(NC(=O)CCc2ccc3c(c2)C(=O)N(C2CCC(=O)NC2=O)C3)cc1CN1CCOCC1 (centres unmarked) [Compound 42] | 1100 to 1700 nM | ≤ 30 nM | – | 30 nM |
| Cc1c(Cl)cc(NC(=O)CCc2ccc3c(c2)C(=O)N(C2CCC(=O)NC2=O)C3)cc1OC1CCN(C)C1 (centres unmarked) [Compound 50] | ≤ 500 nM | 30 to 300 nM | < 1100 nM | – |
| O=C1CCC(N2Cc3ccc(CCC(=O)Nc4cc(Cl)cc(OCC5CCNC5)c4)cc3C2=O)C(=O)N1 (centres unmarked) [Compound 25] | 500 to 1100 nM | > 300 nM | < 1100 nM | – |
| O=C1CCC(N2Cc3ccc(CCC(=O)Nc4ccc(-c5ccccc5)nc4)cc3C2=O)C(=O)N1 (centres unmarked) [Compound 34] | ≤ 500 nM | ≤ 30 nM | < 1100 nM | 13 nM |
| O=C1CCC(N2Cc3ccc(CCC(=O)N4CCC(Oc5ccccc5)C4)cc3C2=O)C(=O)N1 (centres unmarked) [Compound 21] | > 1700 nM | > 300 nM | – | – |
| COc1cc(C)c(Cl)cc1NC(=O)CCc1ccc2c(c1)C(=O)N(C1CCC(=O)NC1=O)C2 (centres unmarked) [Compound 10] | 500 to 1100 nM | > 300 nM | < 1100 nM | – |
| Cc1c(CN2CCOCC2)cc(NC(=O)CCc2ccc3c(c2)C(=O)N(C2CCC(=O)NC2=O)C3)cc1OC(F)F (centres unmarked) [Compound 35] | 500 to 1100 nM | ≤ 30 nM | < 1100 nM | 12 nM |
| Cc1cc(C)cc(NC(=O)CCc2ccc3c(c2)C(=O)N(C2CCC(=O)NC2=O)C3)c1 (centres unmarked) [Compound 7] | 500 to 1100 nM | ≤ 30 nM | < 1100 nM | 25 nM |
| O=C1CCC(N2Cc3ccc(CCC(=O)NC4CCCCC4)cc3C2=O)C(=O)N1 (centres unmarked) [Compound 4] | 500 to 1100 nM | > 300 nM | < 1100 nM | – |
| Cc1ccc(NC(=O)COc2ccc3c(c2)C(=O)N(C2CCC(=O)NC2=O)C3)cc1Cl (centres unmarked) [Compound 69, N-(3-chloro-4-methylphenyl)-2-((2-(2,6-dioxopiperidin-3-yl)-3-oxoisoindolin-5-yl)oxy)acetamide] | 500 to 1100 nM | > 300 nM | – | – |
| COc1cc(NC(=O)CCc2ccc3c(c2)C(=O)N(C2CCC(=O)NC2=O)C3)cnc1C (centres unmarked) [Compound 36] | 1100 to 1700 nM | > 300 nM | – | – |
| O=C(CCc1ccc2c(c1)C(=O)N(C1CCC(=O)NC1=O)C2)NCC1CC1 (centres unmarked) [Compound 9] | 500 to 1100 nM | > 300 nM | < 1100 nM | – |
| CCc1ncc(NC(=O)CCc2ccc3c(c2)C(=O)N(C2CCC(=O)NC2=O)C3)cc1C (centres unmarked) [Compound 47] | 500 to 1100 nM | 30 to 300 nM | < 1100 nM | – |
| O=C1CCC(N2Cc3ccc(CCC(=O)Nc4ccc(F)c(Cl)c4)cc3C2=O)C(=O)N1 (centres unmarked) [Compound 8] | 500 to 1100 nM | 30 to 300 nM | < 1100 nM | – |
| O=C1CCC(N2Cc3ccc(CCC(=O)N4CCCCC4)cc3C2=O)C(=O)N1 (centres unmarked) [Compound 13] | > 1700 nM | > 300 nM | – | – |
| Cc1c(CN2CCOCC2)cc(NC(=O)CCc2ccc3c(c2)C(=O)N(C2CCC(=O)NC2=O)C3)cc1OC(F)(F)F (centres unmarked) [Compound 53] | 500 to 1100 nM | ≤ 30 nM | < 1100 nM | 22 nM |
| O=C1CCC(N2Cc3ccc(CCC(=O)NC4CCCC4)cc3C2=O)C(=O)N1 (centres unmarked) [Compound 17] | 500 to 1100 nM | > 300 nM | < 1100 nM | – |
| Cc1c(Cl)cc(NC(=O)CCc2ccc3c(c2)C(=O)N(C2CCC(=O)NC2=O)C3)cc1OC1CCNC1 (centres unmarked) [Compound 40, N-(3-chloro-4-methyl-5-(pyrrolidin-3-yloxy)phenyl)-3-(2-(2,6-dioxopiperidin-3-yl)-3-oxoisoindolin-5-yl)propanamide] | ≤ 500 nM | > 300 nM | < 1100 nM | – |
| Cc1c(Cl)cc(NC(=O)CCc2ccc3c(c2)C(=O)N(C2CCC(=O)NC2=O)C3)cc1OCCN1CCOCC1 (centres unmarked) [Compound 39] | ≤ 500 nM | 30 to 300 nM | < 1100 nM | – |
| O=C1CCC(N2Cc3ccc(CCC(=O)Nc4ccc(F)c(OC(F)F)c4)cc3C2=O)C(=O)N1 (centres unmarked) [Compound 30] | 500 to 1100 nM | 30 to 300 nM | < 1100 nM | – |
| Cc1c(Cl)cc(NC(=O)CCc2ccc3c(c2)C(=O)N(C2CCC(=O)NC2=O)C3)cc1CN1CC2CCC(C1)O2 (centres unmarked) [Compound 24] | 1100 to 1700 nM | 30 to 300 nM | – | – |
| O=C1CCC(N2Cc3ccc(CCC(=O)Nc4cc(Cl)cc(OC5CCNC5)c4)cc3C2=O)C(=O)N1 (centres unmarked) [Compound 19] | 500 to 1100 nM | > 300 nM | < 1100 nM | – |
| Cc1c(Cl)cc(NC(=O)CCc2ccc3c(c2)C(=O)N(C2CCC(=O)NC2=O)C3)cc1OCC1CCNC1 (centres unmarked) [Compound 51] | ≤ 500 nM | > 300 nM | < 1100 nM | – |
| CCc1cc(NC(=O)CCc2ccc3c(c2)C(=O)N(C2CCC(=O)NC2=O)C3)sn1 (centres unmarked) [Compound 65] | > 1700 nM | 30 to 300 nM | – | – |
| CC(F)(F)c1ccc(NC(=O)CCc2ccc3c(c2)C(=O)N(C2CCC(=O)NC2=O)C3)cc1 (centres unmarked) [Compound 63] | ≤ 500 nM | 30 to 300 nM | < 1100 nM | – |
